Experiment [1] has as its system viral TK (EBV thymidine kinase) transcript in P3HR1 cells. Briefly: Thymidine kinase (TK) mRNA expression assay, quantitative real-time RT-PCR. It is filed as cell-based, human. Particulars: 24 hrs exposure, mRNA by RT-PCR. As for the experimental part:
(§1) To measure whether Chidamide could induce EBV associated transcripts, the induction of mRNA for the protein kinases TK (FIG. 1A) and BGLF4 (FIG. 1B) in EBV-positive lymphoma cell lines was measured after exposure to different concentrations of the short-chain fatty acid, sodium butyrate (NaB), or the benzamide, chidamide (chid), for 24 hrs. Transcripts were quantitated by quantitative real-time RT-PCR.
(§2) The EBV-positive B lymphoma cell line P3HR1 was used in the study. The P3HR1 cell line was originally derived from Burkitt's lymphoma patient. EBV maintains a latent state of replication in this cell line. These cells were maintained in RPMI 1640 with 10% fetal bovine serum containing 100 U penicillin per ml and 100 μg streptomycin per ml.
(§3) P3HR1 cells were seeded in 60 mm plates containing 3×10^6 cells in 3 ml of fresh growth media. Appropriate concentrations of HDAC inhibitors were added to the plate and cells were incubated in the presence of HDAC inhibitors for 6 h, 24 h, 48 h, or as needed. Cells were harvested by centrifugation and washed once in cold PBS. Total cellular RNA was then extracted. To measure the relative level of TK mRNA in various total RNA preparations, reverse transcription and quantitative PCR using real time PCR analysis were used. […] The relative level of TK expression in a sample was calculated following normalization of β-actin expression level.
In general terms: Real-time PCR tracks product formation cycle by cycle.

Experiment [2] relates to BGLF4 (EBV-PK) transcript in P3HR1 cells. Description: Protein kinase (BGLF4) mRNA expression assay, quantitative real-time RT-PCR. It is filed as cell-based, human. As to conditions: 24 hrs exposure, mRNA by RT-PCR. As for the experimental part:
as §1, §2, §3

For experiment [3], the system named is EBV-positive B lymphoma cell line P3HR1. Briefly: Drug sensitivity assay: HDAC inhibitor plus ganciclovir, viable cell count by trypan blue. It is filed as cell-based, human. Particulars: both combined with ganciclovir; living cells counted on day 6. As for the experimental part: To determine tumor cytotoxic activity of the combination of HDACi and GCV, EBV+ lymphoma cells were exposed to a range of concentrations of sodium butyrate or chidamide […] for 3 days and then to GCV alone for another 3 days (FIG. 1C). Efficacy of either sodium butyrate or chidamide in the combination treatment approach was then determined by enumerating living cells. A general experimental protocol is described below.
as §2
To test the sensitivity of EBV-positive lymphoma cells towards chidamide, P3HR1 cells were treated with chidamide in the presence of one anti-viral drug. At the end of the assay, the efficacy of chidamide was assessed by measuring the inhibition of cell growth compared to untreated cells.
Healthy, actively-growing P3HR1 cells were harvested and resuspended in fresh growth media. Cells were seeded in wells. […] On day 6, cell morphology was observed under a microscope and viable cell counts in each individual well was determined by the trypan blue dye exclusion method using an automated cell counter (Countess, Invitrogen).

For experiment [4], the system named is relapsed or refractory EBV-positive lymphoid tumors. As to conditions: arginine butyrate and GCV; of 15 patients; cited from earlier work.
The subject of a further experiment is EBV. Briefly: EBV viral load in patient with post-transplant EBV positive lymphoma. It is filed as in vivo, human. Particulars: one patient; arginine butyrate and daily ganciclovir; after 3 weeks of treatment; before treatment (Week 1) 27,782. As for the experimental part: (§4) Levels were determined before treatment (week1) and after 3 weeks of treatment (week 3).

For the next experiment, the system named is CMV. Description: CMV viral load in patient with post-transplant EBV positive lymphoma. It is filed as in vivo, human. As to conditions: one patient; arginine butyrate and daily ganciclovir; after 3 weeks of treatment; before treatment (Week 1) 12,300. The procedure:
as §4

The test system of the next experiment is HHV-6. Description: HHV-6 viral load in patient with post-transplant EBV positive lymphoma. It is filed as in vivo, human. Particulars: one patient; arginine butyrate and daily ganciclovir; after 3 weeks of treatment; before treatment (Week 1) 658,882. As for the experimental part:
as §4

Take `Nc1cc(F)ccc1NC(=O)c1ccc(CNC(=O)/C=C/c2cccnc2)cc1` [chidamide]: in experiment [1], the “concentration at which induction of viral TK expression begins” value was found to be 500 nM. The “concentration at which induction of BGLF4 expression begins” value in experiment [2] is on record as 500 nM. The “concentration of chidamide as good in killing as 1.0 mM sodium butyrate” value in experiment [3] turned out to be 104.

With arginine butyrate, in experiment [4], the “patients who achieved complete tumor remissions” value is on record as 4 patients and the “patients who achieved partial tumor remissions” value is on record as 6 patients. In addition, the “EBV viral load, Week 3” value with EBV is reported as 1,486 Copies per mL. For the same compound, the “CMV viral load, Week 3” value with CMV was 1,600 Copies per mL. The “HHV-6 viral load, Week 3” value in the experiment with HHV-6 was found to be 805 Copies per mL.
